This passage reports RP-LC retention time results from the METLIN SMRT retention time set (Domingo-Almenara et al. 2019).

This data set is described as follows: gradient 5% acetonitrile 3 min, to 50% in 2 min, to 85% in 15 min, held 3 min, 100 µL/min. To be noted: column: Zorbax Extend-C18 2.1 x 50 mm; eluents: water / acetonitrile, 0.1% formic acid. The gist of the method: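 Pure standards were run in mixtures of ~100 molecules by HPLC coupled to a quadrupole time-of-flight mass spectrometer. The column was a Zorbax Extend-C18 (2.1 × 50 mm, 1.8 μm) at 100 μL/min, with water and acetonitrile each containing 0.1% formic acid, in positive and negative ionization mode. Dead and dwell volumes were 40 μL and 900 μL. Retention time was taken from computationally picked adduct peaks, each manually inspected, with data collected over 3 months.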
Compound `O=C1NCCCCCN(C(=O)c2ccoc2)[C@@H]2C[C@@H](C(=O)N3CCc4ccccc4C3)C[C@H]12` came in with an RP-LC retention time of 753 s.

As to `CNC(=O)c1cc2cc(Br)ccc2[nH]1`, the RP-LC retention time stood at 771 s.

As to `CCc1nc(-c2csc(S(=O)(=O)N3CCC(C(=O)Nc4ccc(C)c(F)c4)CC3)c2)no1`, the RP-LC retention time turned out to be 1060 s. Consider `COCCN(CCOC)Cc1c(C)[nH]c2c(C)c(C)ccc2c1=O`, for which the RP-LC retention time amounted to 605 s.

Take `COc1ccccc1OC(C)C(=O)Nc1ccnn1Cc1cccs1` (centres undefined): the RP-LC retention time was found to be 842 s. For `O=S(=O)(Cc1ccccc1)N1CCC(c2noc(-c3ccncc3)n2)C1` (centres undefined) the value was 812 s; for `CC(C)c1ccc(S(=O)(=O)N(CC(=O)N2CCNCC2)CC(C)c2ccccc2)cc1` (centres undefined), 772 s. For `Cc1cc(C2CCCN2C(=O)c2c(-c3ccccc3Cl)noc2C)on1` (centres undefined) the value was 816 s.

Compound `O=C(CCc1csc2nc(C3CC3)cn12)NCc1ccc(OC(F)(F)F)cc1` gave an RP-LC retention time of 612 s. For `Cc1cccc(N2C(=O)CN(S(C)(=O)=O)CC2(C)C(=O)NC2CCCCCCC2)c1C` (centres undefined) the value was 951 s; for `COc1ccc(C(=O)Nc2ccc3c(c2)Sc2ncccc2C(=O)N3C(C)C)cc1`, 860 s. In turn, `CCCN1C(=O)c2c(C(=O)NCc3cccc(C)c3)ncn2CC1(C)C(=O)NCCC(C)C` (centres undefined) yielded an RP-LC retention time of 879 s. For the compound `COc1ccc(N2CC(c3nc(-c4cccc(OC)c4OC)no3)CC2=O)cc1` (centres undefined), the RP-LC retention time came to 870 s. For `Cc1ccc(-c2nnc(C3CN(C(=O)C4(c5ccccc5)CC4)CC34CCOCC4)o2)cc1` (centres undefined) the value was 830 s; for `CC(C)CN1C(=O)c2cccn2CC1C(=O)NCCN1CCCC1` (centres undefined), 572 s; for `O=C(NCC1CCN(C(=O)COc2ccccc2)CC1)c1ccccc1C(F)(F)F`, 753 s.

`NC(=NCc1ccc(Cl)cc1Cl)NC(=O)c1nc(Cl)c(N)nc1N` had an RP-LC retention time of 770 s.

`CC(=O)Nc1nc(-c2cccnc2)cs1`: the RP-LC retention time was 504 s. `COc1ccc(OC)c(CNC(=O)C2CCCN(c3ccc(=O)n(-c4cccc(F)c4)n3)C2)c1` (centres undefined) yielded an RP-LC retention time of 827 s. As for `O=C(Cn1c(=O)c2cccn2c2ccc(F)cc21)NCCCN1CCCCC1`, the RP-LC retention time was determined as 600 s. For `Cc1csc(-c2ccc(N3CCN(C(=O)COc4ccc(Cl)cc4)CC3)nc2)n1` the value was 925 s; for `COc1ccc(Cl)c2c(=O)c3c([nH]c12)CCN(CC(=O)Nc1cc(F)ccc1F)C3`, 625 s; for `CCc1csc(-c2ccc(N3CCN(C(=O)c4ccc(F)cc4)CC3)nc2)n1`, 921 s. For `Cc1nc(C)c(C(=O)N2CCCC2c2nc(CCOCC3CCCC3)no2)s1` (centres undefined) the value was 905 s. For `Cc1ccc(S(=O)(=O)Nc2ccc3c(c2)CCC(=O)N3C)cc1Cl` the value was 1000 s. The compound `CCn1cnc(S(=O)(=O)N2CCC(C(=O)Nc3ncccc3C)CC2)c1` gave an RP-LC retention time of 570 s. As for `O=C(COc1ccc(Cl)cc1)Nc1nc2ccc([N+](=O)[O-])cc2s1`, the RP-LC retention time turned out to be 974 s. For `O=C(CC1CCN(C(=O)c2ccc3oc(-c4ccccc4)nc3c2)CC1)N1CCOCC1` the value was 682 s; for `Cc1ccc(C2CCCN2C(=O)Cc2ccsc2)cc1` (centres undefined), 632 s. As to `CN1C(=O)C(CC(=O)Nc2ccccc2)=C2CCCCC21` (centres undefined), the RP-LC retention time is 758 s. For `CC(C)C(=O)N1CCCCCCN(C)C(=O)[C@@H]2CCC[C@@H]21` the value was 760 s; for `O=C(O)CCn1nnc2ccccc2c1=O`, 606 s; for `O=C(Cc1cc(-c2ccc3c(c2)OCCO3)on1)N1CCN(C(=O)c2ccco2)CC1`, 680 s. For `COc1ccc(-c2noc(CC(=O)NCc3ccccc3)c2-c2ccc(OC)cc2)cc1` the value was 924 s. Regarding `O=C(NCc1ccc(F)cc1)NC1CCCN(c2cc(-c3ccncc3)[nH]n2)C1` (centres undefined), the RP-LC retention time is 610 s. `CCS(=O)(=O)Nc1ccc2nc(N3CCN(c4cccc(C)c4C)CC3)cc(C(=O)O)c2c1` registered an RP-LC retention time of 743 s. For `Cc1ccccc1-c1nc(Cn2c(C)nc3onc(C)c3c2=O)c(C)o1` the value was 1120 s; for `COC(=O)c1cccc(C(=O)NC2(c3nc(C)no3)CCCCC2)c1`, 849 s. Compound `Cc1ccccc1OCC(=O)Nc1nc(-c2ccccc2Cl)cs1` registered an RP-LC retention time of 1210 s.

Take `CCc1ccc(C(C)NC(=O)C2CCN(Cc3cn(C)c4ccccc34)CC2)cc1` (centres undefined): the RP-LC retention time is 764 s.

Compound `CC(C)c1noc(N2CCC(COc3ccc(-c4ccc(S(C)(=O)=O)cc4)nc3)CC2)n1` showed an RP-LC retention time of 991 s. For `Cc1cc(C)nc(Nc2nc(C(=O)O)cs2)n1` the value was 626 s; for `CC(C)Cc1csc(-c2csc(S(=O)(=O)NCc3cccs3)c2)n1`, 1150 s. For the compound `Cc1cc(C)cc(NC(=O)Cn2ccc3sccc3c2=O)c1`, the RP-LC retention time is 820 s. `Cc1nn(C(C)C(=O)Nc2ccc(Cl)cn2)c(=O)c2c(-n3cccc3)n(-c3ccccc3)nc12` (centres undefined): the RP-LC retention time came out at 1120 s. For `COc1cc(C2=NN(C(C)=O)C(c3cccnc3)O2)cc(OC)c1OC` (centres undefined) the value was 701 s; for `O=C(Nc1cnc(N2CCOCC2)nc1)c1ccc(Br)cc1`, 810 s. For `Cc1nc(C(=O)Nc2ccc(F)cc2)c(C)o1` the value was 848 s. For `Cc1nc(Nc2ccc(F)cn2)sc1C(=O)N1CCN(c2ccccc2)CC1` the value was 875 s; for `O=C(c1ccccn1)N1CCCCC1c1nc(-c2cnccn2)no1` (centres undefined), 637 s. `O=C(NC1CCc2ccccc21)C1CCN(C(=O)c2ncn3c2COC(c2ccccc2)C3)CC1` (centres undefined) registered an RP-LC retention time of 809 s.

Take `COCc1cc(=O)n(CC(=O)Nc2ccc(OC)cc2)c(N2CCOCC2)n1`: the RP-LC retention time amounted to 755 s. The compound `Cc1ccc(CN2CCC(CNC(=O)c3cc(=O)n(C)c4c3c(=O)n(C)c(=O)n4C)CC2)cc1` had an RP-LC retention time of 625 s. In turn, `COCCn1cc(CCNC(=O)Nc2cc(C)cc(C)c2)c2cccnc21` registered an RP-LC retention time of 776 s. For `Cc1nn2c(CNS(=O)(=O)c3ccc(F)c(Cl)c3)c(-c3ccccc3)nc2s1` the value was 942 s; for `CC(=O)c1cccc(NC(=O)N2CCc3cc(-c4ccc(C(=O)N5CCOCC5)cc4)ccc32)c1`, 918 s. For the compound `CCCNC(=O)C1CC(=O)N(c2n[nH]c3cccc(F)c23)C1` (centres undefined), the RP-LC retention time came out at 626 s. For `Cn1c(=O)sc2cc(S(=O)(=O)N3CCC(C(=O)Nc4ccccn4)CC3)ccc21` the value was 684 s; for `CCCCCNC(=O)c1ccc2c(c1)CCCN2S(C)(=O)=O`, 846 s.
